For test [1], the system named is mTOR. Nature of the test: mTOR (phospho-ser2448) ELISA and western blot in activated Jurkat cells. It counts as cell-based, human. On the procedure:
Western blot analysis: Nuclear extract lysates were separated on 3-8% Tris-Acetate gels (Invitrogen). Total cell lysates were separated on 4-20% Tris-Glycine gels (Bio-Rad). Gels were transferred onto PVDF membrane (Millipore) for 2 hours in the cold room at 100V. Immunoblotting was performed using following antibodies: pDNA-PKcs at S2056 (ab18192, Abcam), DNAPK (ab53701, Abcam), pNFAT2 at S237 (ab183023, Abcam), CABIN1 (12660S, Cell signaling), GAPDH (MAB374, Millipore), and Lamin B1 (ab16048, Abcam). HRP-conjugated secondary antibody anti-Rabbit and anti-Mouse (7074S and 7076S, Cell Signaling) was used.
Detection of calcineurin and mTOR activities: Calcineurin phosphatase activity was detected by Calcineurin Cellular Activity Assay Kit from Millipore (Billerica, MA) and mTOR signaling was detected by Calcium Detection Kit from Abcam (Cambridge, MA). The manufacturer's protocols were followed. Briefly, Jurkat cells (2 million cells/mL) were lysed using lysis buffer. For calcineurin activity, the cell lysates were desalted by gel filtration to remove free phosphates before the assay and were subjected to calcineurin activity assay. The absorbance of each sample was read at 620 nm using the plate reader. […] The absorbance of each sample was read at 450 nm using the plate reader.

Test [2] deals with Th1 T cells. Nature of the test: qPCR on T cell markers, Th1 differentiation of naïve CD4+ T cells. It is filed as cell-based. Conditions: naïve CD4+ T cells from mouse spleens. How it is done: qPCR on T cell markers: Naïve CD4+ T cells were isolated by standard methods from the spleens of Balbc mice. T cells were grown in culture and treated with cytokines specific for differentiate into Th1 and Th17 subtypes. Additionally, T cells were cultured with NU7441 and FK506. qPCR was performed looking at the following markers: Batf3, RORyt, IL17, IL22, TGFBeta, Lymphotoxin, T-Bet.

In test [3] the test system is NFAT. Nature of the test: Immunofluorescence of NFAT nuclear translocation in Jurkat cells. It counts as cell-based, human. Details: dose or concentration left out as unconfirmed. The following applies: Jurkat activated with PMA+PHA, inhibitor. How it is done: Immunofluorescence of NFAT: Jurkat cells were plated in poly-lysine treated 35 mm dish with glass-bottom (BioTek) overnight. The cells were fixed with 4% formaldehyde and permeabilized with permeabilization solution (0.2% TRITON X-100+OVA solution (0.1 mg/mL), 0.01% sodium azide). NFAT was probed with anti-NFAT2 (ab2796, Abcam) in permeabilization solution overnight at 4° C., and then washed with PBS. Fluorescein (FITC)-conjugated AffiniPure Donkey Anti-Mouse IgG (715-095-151, Jackson ImmunoResearch) was applied to the cells for 1 hour at room temperature. The cells were washed with PBS and ProLong Antifade reagent with DAPI (Molecular Probes) was applied. All samples were analyzed on an Olympus Fluoview FV1000 laser confocal microscope. Images from all microscopy experiments were processed using the FV10-ASW 3.1 Viewer (Olympus).

Test [4] concerns Ca^2+. Nature of the test: Calcium ion measurement in Jurkat cell lysates. Conditions: Jurkat cell lysates following activation with PMA+PHA. It counts as cell-based, human. On the procedure: Measurements of calcium ions: Intracellular concentration of calcium ions was measured by Calcium Detection Assay Kit from Abcam (Cambridge, MA). The manufacturer's protocols were followed. Briefly, Jurkat cells (2 million cells/mL) were lysed using cold PBS with 0.1% NP-40. The cell lysates were diluted 10 times before use. After following the assay protocol, the absorbance of each sample was read at 575 nm using the plate reader.

For test [5], the system named is NFAT. The experiment in a line: Western blot of phosphorylated NFAT (s237) in activated Jurkat cells. It counts as cell-based, human. The following applies: Jurkat activated with PMA+PHA. On the procedure: Cell Culture: Human peripheral blood mononuclear cells (PBMC,) and Jurkat cells were purchased from ATCC (PCS-800-011, Manassas, VA). Cells were maintained at 37° C. in a humidified atmosphere composed of 5% CO2. Jurkat cells were cultured in RPMI 1640 medium which was supplemented with 10% FCS and human PBMC was cultured in RPMI 1640 medium which was supplemented with 10% FCS and pen/strep. Both Jurkat cells and PBMC were stimulated with PHA (50 ng/mL) and PMA (1 μg/mL) for 24 hours prior to harvesting for IL-2 detection or 6 hours prior for western blot analysis. The NU7441 DNA-PKcs inhibitor was added at varying concentrations at the time of stimulation.
Cell lysis and nuclear extract: Cells were washed with cold PBS twice and centrifuged at 5000 rpm for 5 minutes. For the nuclear extract, pellets were suspended with 800 μL of 10 mN HEPES lysis buffer (10 mM HEPES at pH 7.9, 10 mM KCl, 1 mM DTT, and 1× protease and phosphatase inhibitor) and incubated on ice for 15 minutes. 50 μL of NP-40 (10% in water) was added and the pellets were mixed for 10 seconds. Lysates were centrifuged for 5 minutes at 4° C. at 13,000 rpm. […]

The test system of test [6] is IL-2. Nature of the test: qPCR of IL-2 expression in stimulated Jurkat cells. The following applies: PHA+PMA stimulation. It counts as cell-based, human. On the procedure:
Evaluation of PD-1 and IL-2 expression: The effect of NU7441 on the expression of PD-1, a protein with immunosuppressant function, and IL-2 was examined in Jurkat cells following stimulation with PHA+PMA and treatment with the inhibitor NU7441. qPCR analysis was performed using primers specific for PD1 and IL-2 sequences.

Test [7] relates to calcineurin. The experiment in a line: Calcineurin Cellular Activity Assay in Jurkat cell lysates. Conditions: Jurkat activated with PMA+PHA, NU7441 2.5 µM. It is filed as cell-based, human. An excerpt:
Detection of calcineurin and mTOR activities: Calcineurin phosphatase activity was detected by Calcineurin Cellular Activity Assay Kit from Millipore (Billerica, MA) and mTOR signaling was detected by Calcium Detection Kit from Abcam (Cambridge, MA). The manufacturer's protocols were followed. Briefly, Jurkat cells (2 million cells/mL) were lysed using lysis buffer. For calcineurin activity, the cell lysates were desalted by gel filtration to remove free phosphates before the assay and were subjected to calcineurin activity assay. The absorbance of each sample was read at 620 nm using the plate reader. For mTOR ELISA assay, the cell lysates were added to each well and antibody against phosphorylated mTOR at serine 2448 was used to detect the activity of mTOR signaling. The absorbance of each sample was read at 450 nm using the plate reader.

Test [8] addresses DNA-PKcs (Homo sapiens, UniProt P78527). Conditions: reference [24]; cited from earlier work.

The structures appear in SMILES notation. Entries after “also recorded” stand apart in the source; their conditions may differ.

As for `O=c1cc(N2CCOCC2)oc2c(-c3cccc4c3sc3ccccc34)cccc12` [NU7441], in test [1], the “mTOR activation (phosphorylated ser2448)” value is recorded as “did not alter mTOR activation; also recorded: does not alter mTOR activation”. Also, the “Th1 differentiation (markers T-Bet, Lymphotoxin)” value in test [2] is on record as “promoting the expression of Th1 T cells”. In addition, the “nuclear localization of NFAT” value in test [3] is “nuclear localization was prevented; also recorded: blocked translocation of NFAT to the nucleus”. For the same compound, the “concentration of Ca^2+ ions” value in test [4] is listed as “no change; also recorded: not affected”. Besides, the “NFAT phosphorylation at s237” value in test [5] is listed as “remained phosphorylated; also recorded: inhibited the dephosphorylation of NFAT”. Besides, the IL-2 expression entry in test [6] is “reduced”. In addition, the calcineurin phosphatase activity result in test [7] is given as “significantly inhibited; also recorded: significant reduction in calcineurin activity”. In test [8], the “inhibition of DNA-PKcs” value is “potent and specific inhibitor”; the “interference with ATR or ATM activation” value is recorded as “does not interfere”.

The values above are taken from US20240245696A1, “INHIBITORS OF DNA PK AND USES THEREOF” (BioVentures, LLC, priority 2017, published 2024).
